Test results as given in patent publication US20230263822A1, “MODULATION OF FACTOR 11 EXPRESSION” (Ionis Pharmaceuticals, Inc., priority 2008, published 2023).

Assays:
[1] = Bleeding assay, Surgicutt Jr. device (Example 45); type: in vivo, cynomolgus monkeys; design: unit not given here; conditions: escalating dose regimen
Method: (§1) Groups, each consisting of two male and three female monkeys, were injected subcutaneously with ISIS 416838, ISIS 416850, ISIS 416858, ISIS 416864, or ISIS 417002 in escalating doses. Antisense oligonucleotide was administered to the monkeys at 5 mg/kg three times per a week for week 1; 5 mg/kg twice per week for weeks 2 and 3; 10 mg/kg three times per week for week 4; 10 mg/kg twice per week for weeks 5 and 6; 25 mg/kg three times per week for week 7; and 25 mg/kg twice per week for weeks 8, 9, 10, 11, and 12. One control group, consisting of two male and three female monkeys, was injected subcutaneously with PBS according to the same dosing regimen. An additional experimental group, consisting of two male and three female monkeys, was injected subcutaneously with ISIS 416850 in a chronic, lower dose regimen. Antisense oligonucleotide was administered to the monkeys at 5 mg/kg three times per week for week 1; 5 mg/kg twice per week for week 2 and 3; 10 mg/kg three times per week for week 4; and 10 mg/kg twice per week for weeks 5 to 12. Body weights were measured weekly. Blood samples were collected 14 days and 5 days before the start of treatment and subsequently once per week for Factor 11 protein activity analysis in plasma, fibrinogen measurement, PT and aPTT measurements, bleeding times, and measurement of various hematologic factors. On day 85, the monkeys were euthanized by exsanguination while under deep anesthesia, and organs harvested for further analysis.
On different days during the treatment period, bleeding assay was performed using a Surgicutt Jr. device (ITC, New Jersey). Monkeys were placed in monkey chair with their arm placed in a steady support. The arm was lightly shaved and a sphygmomanometer was placed on the upper arm. The cuff of the sphygmomanometer was inflated to 40 mm Hg and this pressure was maintained throughout the procedure. The area on the upper arm to be incised was cleansed with an antiseptic swab and the Surgicutt Jr device was used to make an incision over the lateral aspect, volar surface of the forearm, parallel to and 5 cm below the antecubital crease. At the exact moment the incision was made, a stopwatch was started. Every 30 seconds, blood from the incision was blotted out using a blotting paper without directly touching the incision, so that formation of the platelet plug was not disturbed. Blood was blotted out every 30 seconds until blood no longer stained the paper. The stopwatch was then stopped and the bleeding time determined. The sphygmomanometer was removed from the animal's arm, the incision site was antiseptically swabbed and a wound closure strip applied. The ISIS oligonucleotide, ISIS 416850, given with the chronic dose regimen is distinguished from the other oligonucleotides with an asterisk (*).

[2] = Tolerability in Sprague-Dawley rats: liver function (Example 35); conditions: plasma, 50 mg/kg s.c. twice per week for 6 weeks
[3] = tested on: fibrinogen; test: Fibrinogen assay (Example 45); type: in vivo, cynomolgus monkeys; conditions: plasma, escalating dose regimen
Method: as §1
Nine parts of fresh monkey plasma was collected into one part of trisodium citrate. The samples were evaluated of fibrinogen content using an ACL 9000 coagulation instrument (Instrumentation Laboratory, Italy). The ISIS oligonucleotide, ISIS 416850, given with the chronic dose regimen is distinguished from the other oligonucleotides with an asterisk (*).

[4] = tested on: platelet aggregation; test: Platelet aggregation assay, ADP and/or collagen (Example 45); type: in vivo, cynomolgus monkeys; conditions: escalating dose regimen
Method: as §1
Platelet aggregation was initiated by adding 1 mmol/L ADP and/or 3 μg collagen (depending on the collection day, as outlined in Table 121) to plasma samples, and was allowed to proceed for 10 minutes. Aggregation was characterized by recording the change in the electrical resistance or impedance and the change in the initial slope of aggregation after platelet shape change. The aggregation test was performed twice per sample on each collection day and the average value was taken. The ISIS oligonucleotide, ISIS 416850, given with the chronic dose regimen is distinguished from the other oligonucleotides with an asterisk (*).

[5] = Kidney function, urine protein to creatinine ratio in cynomolgus monkeys (Example 45); type: in vivo
Method: as §1
To evaluate the impact of ISIS oligonucleotides on kidney function, urine samples were collected.

[6] = mouse, in vivo
Method: (§2) A control group of five mice was injected subcutaneously with PBS for 2 weeks. All experimental groups (i.e. ASO treated mice at 2, 4, 6 weeks) were compared to the control group (i.e. PBS, 2 weeks).
Blood obtained from all mice groups were sent to Antech Diagnostics for hematocrit (HCT), mean corpuscular volume (MCV), mean corpuscular hemoglobin (MCH), and mean corpuscular hemoglobin concentration (MCHC) measurements and analyses, as well as measurements of the various blood cells, such as WBC (neutrophils, lymphocytes, and monocytes), RBC, and platelets, and total hemoglobin content.

[7] = Tolerability in CD1 mice: kidney function, BUN, creatinine (Example 33); conditions: plasma, 50 mg/kg s.c. twice a week
Method: as §2
To evaluate the effect of ISIS oligonucleotides on kidney function, plasma concentrations of blood urea nitrogen (BUN) and creatinine were measured using an automated clinical chemistry analyzer (Hitachi Olympus AU400e, Melville, N.Y.).

Work on “ISIS 416858: MOE gapmer, nucleobases 1275 to 1318 of SEQ ID NO: 1 (Table 8) (antisense ACGGCATTGGTGCACAGTTT; MOE gapmer, wing and gap sizes not given here)” yielded a bleeding time ([1]; day 15) of 146, a bleeding time ([1]; day 22) of 100 and a bleeding time ([1]; day 36) of 206. It also gave a bleeding time ([1]; day 43) of 111, a bleeding time ([1]; day 57) of 138 and a bleeding time ([1]; day 64) of 113. The bleeding time ([1]; day 78) was 186, the bleeding time ([1]; day 85) was 191 and the bleeding time ([1]; day −5) was 149. For the same substance, the bleeding time ([1]; day −14) was 154, the ALT [2] was 13 IU/L and the AST [2] was 4 IU/L. It also gave an Albumin [2] of 2, a Bilirubin [2] of 4 mg/dL and a fibrinogen levels ([3]; day 8) of 246 mg/dL. For the same substance, the fibrinogen levels ([3]; day 15) was 219 mg/dL, the fibrinogen levels ([3]; day 22) was 222 mg/dL and the fibrinogen levels ([3]; day 29) was 220 mg/dL. The fibrinogen levels ([3]; day 36) was 225 mg/dL, the fibrinogen levels ([3]; day 43) was 229 mg/dL and the fibrinogen levels ([3]; day 50) was 259 mg/dL. The fibrinogen levels ([3]; day 57) was 225 mg/dL, the fibrinogen levels ([3]; day 64) was 236 mg/dL and the fibrinogen levels ([3]; day 71) was 239 mg/dL. For the same substance, the fibrinogen levels ([3]; day 78) was 234 mg/dL, the fibrinogen levels ([3]; day 85) was 243 mg/dL and the fibrinogen levels ([3]; day −5) was 246 mg/dL. For the same substance, the fibrinogen levels ([3]; day −14) was 277 mg/dL, the platelet aggregation ([4]; day 15 (with ADP)) was 19 Ohms and the platelet aggregation ([4]; day 36 (with ADP)) was 17 Ohms. For the same substance, the platelet aggregation ([4]; day 43 (with collagen)) was 16 Ohms, the platelet aggregation ([4]; day 57 (with ADP)) was 11 Ohms and the platelet aggregation ([4]; day 64 (with collagen)) was 14 Ohms. It also gave a platelet aggregation ([4]; day 78 (with ADP)) of 8 Ohms, a platelet aggregation ([4]; day 85 (with ADP)) of 18 Ohms and a platelet aggregation ([4]; day 85 (with collagen)) of 23 Ohms. For the same substance, the platelet aggregation ([4]; day −5 (with collagen)) was 22 Ohms, the “urine protein to creatinine ratio” value ([5]; Day 80) was 0.10 and the “urine protein to creatinine ratio” value ([5]; Day 84) was 0.07. For the same substance, the RBC count [6] was 9 cells/pL, the BUN ([7]; 2 weeks) was 21 mg/dL and the Creatinine ([7]; 2 weeks) was 0.13 mg/dL. The BUN ([7]; 4 weeks) was 29 mg/dL, the Creatinine ([7]; 4 weeks) was 0.23 mg/dL and the BUN ([7]; 6 weeks) was 19 mg/dL. The Creatinine ([7]; 6 weeks) was 0.10 mg/dL.
“ISIS 416864: MOE gapmer, nucleobases 1275 to 1318 of SEQ ID NO: 1 (Table 8) (antisense GGCAGCGGACGGCATTGGTG; MOE gapmer, wing and gap sizes not given here)” showed a bleeding time ([1]; day 15) of 153, a bleeding time ([1]; day 22) of 133 and a bleeding time ([1]; day 36) of 205. For the same substance, the bleeding time ([1]; day 43) was 146, the bleeding time ([1]; day 57) was 216 and the bleeding time ([1]; day 64) was 218. The bleeding time ([1]; day 78) was 170, the bleeding time ([1]; day 85) was 203 and the bleeding time ([1]; day −5) was 111. It also gave a bleeding time ([1]; day −14) of 166, an ALT [2] of 471 IU/L and an AST [2] of 68 IU/L. The Albumin [2] was 4, the Bilirubin [2] was 3 mg/dL and the fibrinogen levels ([3]; day 8) was 227 mg/dL. The fibrinogen levels ([3]; day 15) was 210 mg/dL, the fibrinogen levels ([3]; day 22) was 184 mg/dL and the fibrinogen levels ([3]; day 29) was 205 mg/dL. For the same substance, the fibrinogen levels ([3]; day 36) was 202 mg/dL, the fibrinogen levels ([3]; day 43) was 198 mg/dL and the fibrinogen levels ([3]; day 50) was 233 mg/dL. For the same substance, the fibrinogen levels ([3]; day 57) was 200 mg/dL, the fibrinogen levels ([3]; day 64) was 218 mg/dL and the fibrinogen levels ([3]; day 71) was 245 mg/dL. For the same substance, the fibrinogen levels ([3]; day 78) was 250 mg/dL, the fibrinogen levels ([3]; day 85) was 240 mg/dL and the fibrinogen levels ([3]; day −5) was 243 mg/dL. It also gave a fibrinogen levels ([3]; day −14) of 300 mg/dL, a platelet aggregation ([4]; day 15 (with ADP)) of 20 Ohms and a platelet aggregation ([4]; day 36 (with ADP)) of 17.8 Ohms. For the same substance, the platelet aggregation ([4]; day 43 (with collagen)) was 20 Ohms, the platelet aggregation ([4]; day 57 (with ADP)) was 18 Ohms and the platelet aggregation ([4]; day 64 (with collagen)) was 17 Ohms. It also gave a platelet aggregation ([4]; day 78 (with ADP)) of 13 Ohms, a platelet aggregation ([4]; day 85 (with ADP)) of 22 Ohms and a platelet aggregation ([4]; day 85 (with collagen)) of 28 Ohms. For the same substance, the platelet aggregation ([4]; day −5 (with collagen)) was 27 Ohms, the “urine protein to creatinine ratio” value ([5]; Day 80) was 0.36 and the “urine protein to creatinine ratio” value ([5]; Day 84) was 0.34. For the same substance, the MCHC ([6]; sc, 50 mg/kg) was 31%, the BUN ([7]; 2 weeks) was 22 mg/dL and the Creatinine ([7]; 2 weeks) was 0.11 mg/dL. The BUN ([7]; 4 weeks) was 31 mg/dL, the Creatinine ([7]; 4 weeks) was 0.22 mg/dL and the BUN ([7]; 6 weeks) was 28 mg/dL. The Creatinine ([7]; 6 weeks) was 0.16 mg/dL.
